Test results published in article doi:10.1101/2025.09.04.674280 (bioRxiv, 2025).

How the values were obtained:
DgSTING = assay: EMSA titration with […]-labeled ligand; assay type: binding, Diaphanoeca grandis
SdSTING = assay: EMSA titration with […]-labeled ligand; assay type: binding, Stephanoeca diplocostata

Nc1nc2c(ncn2[C@@H]2O[C@@H]3COP(=O)(O)O[C@H]4[C@@H](O)[C@H](n5cnc6c(=O)[nH]c(N)nc65)O[C@@H]4COP(=O)(O)O[C@H]3[C@H]2O)c(=O)[nH]1 [3′3′-c-di-GMP]
Kd (DgSTING): 590 nM
Kd (SdSTING): 1750 nM
